Test results reported in PubChem BioAssay (NCI).
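Assay format: 96-well plates, 48-hour exposure. The concentration for 50% growth inhibition is given as GI50. TGI marks complete inhibition of growth.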

How the values were obtained:
Test in all cases: NCI tumour cell line growth inhibition, 48 h
TK-10 renal = test system: TK-10 renal
UACC-257 melanoma = test system: UACC-257 melanoma
LOX IMVI melanoma = test system: LOX IMVI melanoma
UO-31 renal = test system: UO-31 renal
MDA-MB-231 breast = test system: MDA-MB-231 breast
HOP-92 NSCLC = test system: HOP-92 NSCLC
EKVX NSCLC = test system: EKVX NSCLC
786-0 renal = test system: 786-0 renal
SN12C renal = test system: SN12C renal
MCF7 breast = test system: MCF7 breast
RXF 393 renal = test system: RXF 393 renal
SK-MEL-5 melanoma = test system: SK-MEL-5 melanoma
SF-268 CNS = test system: SF-268 CNS
COLO 205 colon = test system: COLO 205 colon
HCT-15 colon = test system: HCT-15 colon
DU-145 prostate = test system: DU-145 prostate
MDA-MB-435 = test system: MDA-MB-435
HL-60(TB) leukemia = test system: HL-60(TB) leukemia
CCRF-CEM leukemia = test system: CCRF-CEM leukemia
SK-MEL-28 melanoma = test system: SK-MEL-28 melanoma
NCI-H522 lung = test system: NCI-H522 lung
BT-549 breast = test system: BT-549 breast
SR leukemia = test system: SR leukemia
OVCAR-8 ovarian = test system: OVCAR-8 ovarian
K-562 leukemia = test system: K-562 leukemia
HCT-116 colon = test system: HCT-116 colon
IGROV1 ovarian = test system: IGROV1 ovarian
U251 CNS = test system: U251 CNS
NCI-H460 lung = test system: NCI-H460 lung
HS 578T breast = test system: HS 578T breast
A549 NSCLC = test system: A549 NSCLC
SK-OV-3 ovarian = test system: SK-OV-3 ovarian
NCI/ADR-RES ovarian = test system: NCI/ADR-RES ovarian
SW-620 colon = test system: SW-620 colon
MALME-3M melanoma = test system: MALME-3M melanoma
NCI-H23 lung = test system: NCI-H23 lung
UACC-62 melanoma = test system: UACC-62 melanoma
MOLT-4 leukemia = test system: MOLT-4 leukemia
NCI-H226 lung = test system: NCI-H226 lung
PC-3 prostate = test system: PC-3 prostate
HOP-62 NSCLC = test system: HOP-62 NSCLC
OVCAR-3 ovarian = test system: OVCAR-3 ovarian
RPMI-8226 leukemia = test system: RPMI-8226 leukemia
A498 renal = test system: A498 renal
CAKI-1 renal = test system: CAKI-1 renal
T-47D breast = test system: T-47D breast
SF-539 CNS = test system: SF-539 CNS
OVCAR-5 ovarian = test system: OVCAR-5 ovarian
SNB-75 CNS = test system: SNB-75 CNS
HCC-2998 colon = test system: HCC-2998 colon
SNB-19 CNS = test system: SNB-19 CNS
KM12 colon = test system: KM12 colon
SK-MEL-2 melanoma = test system: SK-MEL-2 melanoma
HT29 colon = test system: HT29 colon
ACHN renal = test system: ACHN renal
OVCAR-4 ovarian = test system: OVCAR-4 ovarian
M14 melanoma = test system: M14 melanoma

## C=CC(=O)N1CN(C(=O)C=C)CN(C(=O)C=C)C1
TK-10 renal
  GI50: 2.36 µM
  TGI: 5.7 µM
UACC-257 melanoma
  GI50: 1.82 µM
  TGI: 4.59 µM
LOX IMVI melanoma
  GI50: 1.72 µM
  TGI: 5.78 µM
UO-31 renal
  GI50: 2.19 µM
  TGI: 8.53 µM
MDA-MB-231 breast
  GI50: 11.5 µM
  TGI: 35.6 µM
HOP-92 NSCLC
  GI50: 3.56 µM
  TGI: 13 µM
EKVX NSCLC
  GI50: 9.02 µM
  TGI: 26.2 µM
786-0 renal
  GI50: 7.15 µM
  TGI: 24.7 µM
SN12C renal
  GI50: 20.7 µM
  TGI: 51.6 µM
MCF7 breast
  GI50: 3.65 µM
  TGI: 15.5 µM
RXF 393 renal
  GI50: 1.33 µM
  TGI: 2.83 µM
SK-MEL-5 melanoma
  GI50: 9.61 µM
  TGI: 24.7 µM
SF-268 CNS
  GI50: 11 µM
  TGI: 50.6 µM
COLO 205 colon
  GI50: 1.7 µM
  TGI: 3.59 µM
HCT-15 colon
  GI50: 2.01 µM
  TGI: 4.68 µM
DU-145 prostate
  GI50: 10.7 µM
  TGI: 29 µM
MDA-MB-435
  GI50: 2.96 µM
  TGI: 10.7 µM
HL-60(TB) leukemia
  GI50: 3.37 µM
  TGI: 10.3 µM
CCRF-CEM leukemia
  GI50: 2.82 µM
  TGI: 9.78 µM
SK-MEL-28 melanoma
  GI50: 4.02 µM
  TGI: 16.2 µM
NCI-H522 lung
  GI50: 1.65 µM
  TGI: 3.51 µM
BT-549 breast
  GI50: 6.68 µM
  TGI: 20.7 µM
SR leukemia
  GI50: 2.46 µM
  TGI: 6.82 µM
OVCAR-8 ovarian
  GI50: 2.93 µM
  TGI: > 100 µM
K-562 leukemia
  GI50: 3.01 µM
  TGI: 9.83 µM
HCT-116 colon
  GI50: 1.77 µM
  TGI: 3.33 µM
IGROV1 ovarian
  GI50: 3.34 µM
  TGI: 11.3 µM
U251 CNS
  GI50: 4.34 µM
  TGI: 16.5 µM
NCI-H460 lung
  GI50: 21.7 µM
  TGI: 50.4 µM
HS 578T breast
  GI50: > 100 µM
  TGI: > 100 µM
A549 NSCLC
  GI50: 21.2 µM
  TGI: 81.7 µM
SK-OV-3 ovarian
  GI50: 26.8 µM
  TGI: > 100 µM
NCI/ADR-RES ovarian
  GI50: 6.81 µM
  TGI: > 100 µM
SW-620 colon
  GI50: 2.16 µM
  TGI: 5.16 µM
MALME-3M melanoma
  GI50: 2.81 µM
  TGI: 7.2 µM
NCI-H23 lung
  GI50: 2.77 µM
  TGI: 9.15 µM
UACC-62 melanoma
  GI50: 3.49 µM
  TGI: 12 µM
MOLT-4 leukemia
  GI50: 2.71 µM
  TGI: 8.05 µM
NCI-H226 lung
  GI50: 5.87 µM
  TGI: > 100 µM
PC-3 prostate
  GI50: 9.16 µM
  TGI: 53.9 µM
HOP-62 NSCLC
  GI50: 12.3 µM
  TGI: 48.1 µM
OVCAR-3 ovarian
  GI50: 2.57 µM
  TGI: 7.99 µM
RPMI-8226 leukemia
  GI50: 2.29 µM
  TGI: 6.76 µM
A498 renal
  GI50: 15.3 µM
  TGI: 32.4 µM
CAKI-1 renal
  GI50: 1.63 µM
  TGI: 3.7 µM
T-47D breast
  GI50: 2.32 µM
  TGI: 12.8 µM
SF-539 CNS
  GI50: 2.98 µM
  TGI: 48.3 µM
OVCAR-5 ovarian
  GI50: 10.6 µM
  TGI: 24.7 µM
SNB-75 CNS
  GI50: 8.9 µM
  TGI: > 100 µM
HCC-2998 colon
  GI50: 10.2 µM
  TGI: 25.3 µM
SNB-19 CNS
  GI50: 33.1 µM
  TGI: > 100 µM
KM12 colon
  GI50: 18.5 µM
  TGI: 38.6 µM
SK-MEL-2 melanoma
  GI50: 5.46 µM
  TGI: 47.4 µM
HT29 colon
  GI50: 3.26 µM
  TGI: 10.4 µM
ACHN renal
  GI50: 1.89 µM
  TGI: 4.49 µM
OVCAR-4 ovarian
  GI50: 5.06 µM
  TGI: 21.2 µM
M14 melanoma
  GI50: 2.85 µM
  TGI: 7.86 µM
